These compounds were tested against USP30 (Homo sapiens (Human), UniProt Q70CQ3) (assay: USP30 biochemical IC50 assay). Settings: read-out: IC50 range; fluorescence polarisation, TAMRA labelled peptide linked to ubiquitin; 30 min pre-incubation, read after 2 hr.
Sequence of USP30 (Q70CQ3 57-517): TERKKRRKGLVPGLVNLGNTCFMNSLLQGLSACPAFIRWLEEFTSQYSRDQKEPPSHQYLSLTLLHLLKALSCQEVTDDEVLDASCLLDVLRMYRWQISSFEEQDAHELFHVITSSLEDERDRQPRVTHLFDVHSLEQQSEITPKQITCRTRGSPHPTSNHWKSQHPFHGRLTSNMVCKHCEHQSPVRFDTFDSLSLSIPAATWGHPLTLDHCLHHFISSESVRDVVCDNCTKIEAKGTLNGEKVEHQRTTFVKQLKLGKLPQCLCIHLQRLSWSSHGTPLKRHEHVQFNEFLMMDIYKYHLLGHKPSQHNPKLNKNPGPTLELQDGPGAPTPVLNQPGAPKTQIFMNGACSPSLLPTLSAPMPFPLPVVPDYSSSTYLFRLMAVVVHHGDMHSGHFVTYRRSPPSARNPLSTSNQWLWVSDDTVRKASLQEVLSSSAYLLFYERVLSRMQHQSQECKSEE
Method: USP30 Biochemical IC50 Assay
Dilution plates were prepared at 21 times the final concentration (2100 μM for a final concentration of 100 μM) in 50% DMSO in a 96-well polypropylene V-bottom plate (Greiner #651201). A typical 8-point dilution series to be 100, 30, 10, 3, 1, 0.3, 0.1, 0.03 μM final. Reactions were performed in duplicate in black 384 well plates (small volume, Greiner 784076) in a final reaction volume of 21 μl. Either 1 μl of 50% DMSO or diluted compound was added to the plate. USP30 was diluted in reaction buffer (40 mM Tris, pH 7.5, 0.005% Tween 20, 0.5 mg/ml BSA, 5 mM—beta-mercaptoethanol) to the equivalent of 0.05 μl/well and 10 μl of diluted USP30 was added to the compound. Enzyme and compound were incubated for 30 min at room temp. Reactions were initiated by the addition of 50 nM of TAMRA labelled peptide linked to ubiquitin via an iso-peptide bond as fluorescence polarisation substrate. Reactions were read immediately after addition of substrate and following a 2 hr incubation at room temperature. Readings were performed on a Pherastar Plus (BMG Labtech). λ Excitation 540 nm; λ Emission 590 nm.

Row | SMILES | IC50 [nM]
1 | CN(c1ccccc1)S(=O)(=O)N(C)C1CCN(C#N)C1 (stereo not shown) [Example 76, N-(1-cyanopyrrolidin-3-yl)-N,N′-dimethyl-N′-phenylsulfuric diamide] | 1000 to 10000
2 | N#CN1CC[C@@H](NS(=O)(=O)Nc2ccc3nc(C(F)(F)F)[nH]c3c2)C1 [Example 45] | 1000 to 10000
3 | N#CN1CC[C@@H](N2CCCN(c3cc(-c4ccccc4)n[nH]3)S2(=O)=O)C1 [Example 29, (R)-3-(1,1-dioxido-6-(3-phenyl-1H-pyrazol-5-yl)-l,2,6-thiadiazinan-2-yl)pyrrolidine-1-carbonitrile] | 100 to 1000
4 | N#CN1CCC(NS(=O)(=O)N2CCC(c3ccccc3)CC2)C1 (stereo not shown) [Example 59, N-(1-cyanopyrrolidin-3-yl)-4-phenylpiperidine-1-sulfonamide] | 100 to 1000
5 | N#CN1CC[C@@H](N2CCN(c3nccc(N4CCOCC4)n3)S2(=O)=O)C1 [Example 51, (R)-3-(5-(4-morpholinopyrimidin-2-yl)-1,1-dioxido-1,2,5-thiadiazolidin-2-yl)pyrrolidine-1-carbonitrile] | 100 to 1000
6 | N#CN1CC[C@@H](N2Cc3cccc(N4CCOCC4)c3NS2(=O)=O)C1 [Example 77, (R)-3-(8-morpholino-2,2-dioxido-1,4-dihydro-3H-benzo[c][1,2,6]thiadiazin-3-yl)pyrrolidine-1-carbonitrile] | 1000 to 10000
7 | COc1ccc(N2CCN([C@@H]3CCN(C#N)C3)S2(=O)=O)cc1N1CCOCC1 [Example 8, (R)-3-(5-(4-methoxy-3-morpholinophenyl)-1,1-dioxido-1,2,5-thiadiazolidin-2-yl)pyrrolidine-1-carbonitrile] | 100 to 1000
8 | N#CN1CC[C@@H](NS(=O)(=O)N2CCc3c(-c4ccccc4)cccc32)C1 [Example 64, (R)—N-(1-cyanopyrrolidin-3-yl)-4-phenylindoline-1-sulfonamide] | 100 to 1000
9 | COc1ccc2c(c1)CCN(S(=O)(=O)N[C@@H]1CCN(C#N)C1)C2 [Example 65, (R)—N-(1-cyanopyrrolidin-3-yl)-6-methoxy-3,4-dihydroisoquinoline-2(1H)-sulfonamide] | 100 to 1000
10 | N#CN1CC[C@H](N2CCN(c3cccc(-c4ccncc4)c3)S2(=O)=O)C1 [Example 33, (S)-3-(1,1-dioxido-5-(3-(pyridin-4-yl)phenyl)-1,2,5-thiadiazolidin-2-yl)pyrrolidine-l-carbonitrile] | < 100
11 | CO[C@@H]1CCN(c2cc(N3CCN([C@@H]4CCN(C#N)C4)S3(=O)=O)ccn2)C1 [Example 54, (R)-3-(5-(2-((R)-3-methoxypyrrolidin-1-yl)pyridin-4-yl)-1,1-dioxido-1,2,5-thiadiazolidin-2-yl)pyrrolidine-1-carbonitrile] | 100 to 1000
12 | N#CN1CC[C@@H](N2CCN(c3ccnc(N4CCOCC4)c3)S2(=O)=O)C1 [Example 50, (R)-3-(5-(2-morpholinopyridin-4-yl)-1,1-dioxido-1,2,5-thiadiazolidin-2-yl)pyrrolidine-1-carbonitrile] | < 100
13 | COc1ccc(-c2ccccc2)cc1N1CCN([C@@H]2CCN(C#N)C2)S1(=O)=O [Example 15, (R)-3-(5-(4-methoxy-[1,1′-biphenyl]-3-yl)-1,1-dioxido-1,2,5-thiadiazolidin-2-yl)pyrrolidine-1-corbonitrile] | < 100
14 | N#CN1CC[C@H](N2CCN(c3cccc(-c4ccccc4)c3)S2(=O)=O)C1 [Example 35, (S)-3-(5-([1,1′-biphenyl]-3-yl)-l,1-dioxido-1,2,5-thiadiozolidin-2-yl)pyrrolidine-1-carbonitrile] | < 100
15 | CN1c2ccccc2N([C@@H]2CCN(C#N)C2)S1(=O)=O [Example 66, (R)-3-(3-methyl-2,2-dioxidobenzo[c][1,2,5]thiadiazol-1(3H)-yl)pyrrolidine-1-carbonitrile] | 1000 to 10000

More lines, now with the values ahead:

Row | IC50 [nM] | SMILES
16 | < 100 | N#CN1CC[C@@H](N2CCN(c3cc(-c4ccccc4)n[nH]3)S2(=O)=O)C1 [Example 28, (R)-3-(1,1-dioxido-5-(3-phenyl-1H-pyrazol-5-yl)-1,2,5-thiadiazolidin-2-yl)pyrrolidine-1-carbonitrile]
17 | 100 to 1000 | Cn1cc(-c2cccc(N3CCCN([C@@H]4CCN(C#N)C4)S3(=O)=O)c2)cn1 [Example 21, (R)-3-(6-(3-(1-methyl-1H-pyrazol-4-yl)phenyl)-1,1-dioxido-1,2,6-thiadiazinan-2-yl)pyrrolidine-1-carbonitrile]
18 | 100 to 1000 | N#CN1CC[C@H](N2CCN(c3cccc(-c4cccnc4)c3)S2(=O)=O)C1 [Example 48, (S)-3-(1,1-dioxido-5-(3-(pyridin-3-yl)phenyl)-1,2,5-thiadiazolidin-2-yl)pyrrolidine-1-carbonitrile]
19 | 100 to 1000 | N#CN1CCC(NS(=O)(=O)Nc2cccc(-c3ccccc3)c2)C1 (stereo not shown) [Example 57, N-biphenyl-3-yl-N′-(1-cyanopyrrolidin-3-yl)sulfuric diamide]
20 | < 100 | N#CN1CC[C@H](N2CCN(c3cccc(-c4ccccc4)n3)S2(=O)=O)C1 [Example 36, (S)-3-(1,1-dioxido-5-(6-phenylpyridin-2-yl)-1,2,5-thiadiazolidin-2-yl)pyrrolidine-1-carbonitrile]
21 | < 100 | N#CN1CC[C@@H](N2CCN(c3ccc(-c4ccncc4)cc3)S2(=O)=O)C1 [Example 18, (R)-3-(1,1-dioxido-5-(4-(pyridin-4-yl)phenyl)-1,2,5-thiadiazolidin-2-yl)pyrrolidine-1-carbonitrile]
22 | < 100 | N#CN1CC[C@@H](N2CCN(c3cccc(-c4ccccc4)c3)S2(=O)=O)C1 [Example 13, (R)-3-(5-([1,1′-biphenyl]-3-yl)-1,1-dioxido-1,2,5-thiadiazolidin-2-yl)pyrrolidine-1-carbonitrile]
23 | 100 to 1000 | N#CN1CC[C@@H](N2CCCN(c3ccc(-c4ccccc4)cc3)S2(=O)=O)C1 [Example 12, (R)-3-(6-([1,1′-biphenyl]-4-yl)-1,1-dioxido-1,2,6-thiadiazinan-2-yl)pyrrolidine-1-carbonitrile]
24 | 100 to 1000 | N#CN1CC[C@@H](N2CCCN(c3cc(-c4ccccc4)no3)S2(=O)=O)C1 [Example 27, (R)-3-(1,1-dioxido-6-(3-phenylisoxazol-5-yl)-1,2,6-thiadiazinan-2-yl)pyrrolidine-1-carbonitrile]
25 | < 100 | N#CN1CC[C@@H](N2CCN(c3cccc(N4CCOCC4)c3)S2(=O)=O)C1 [Example 24, (R)-3-(5-(3-morpholinophenyl)-1,1-dioxido-1,2,5-thiadiazolidin-2-yl)pyrrolidine-1-carbonitrile]
26 | 100 to 1000 | CO[C@@H]1CCN(c2cccc(N3CCN([C@@H]4CCN(C#N)C4)S3(=O)=O)c2)C1 [Example 53, (R)-3-(5-(3-((R)-3-methoxypyrrolidin-1-yl)phenyl)-1,1-dioxido-1,2,5-thiadiazolidin-2-yl)pyrrolidine-1-carbonitrile]
27 | < 100 | N#CN1CC[C@@H](N2CCN(c3ccc(-c4ccccc4)cc3)S2(=O)=O)C1 [Example 11, (R)-3-(5-([1,1′-biphenyl]-4-yl)-1,1-dioxido-1,2,5-thiadiazolidin-2-yl)pyrrolidine-1-carbonitrile]
28 | 100 to 1000 | N#CN1CC[C@@H](N2c3ccccc3N(Cc3ccccc3)S2(=O)=O)C1 [Example 67, (R)-3-(3-benzyl-2,2-dioxidobenzo[c][1,2,5]thiadiazol-1(3H)-yl)pyrrolidine-1-carbonitrile]

From patent US11091488B2 (MISSION THERAPEUTICS LIMITED, priority 2015, dated 2021)
